Here are results for eleven molecules from patent publication US12421254B2, “KRAS modulators and uses thereof” (Quanta Therapeutics, Inc., priority 2023, dated 2025).

The test system of assay [1] is phospho-ERK in GP2D (KRAS-G12D) cells. Description: pERK In Cell Western (ICW) assay (Method B), GP2D. The assay is classed as cell-based. As to the method:
pERK ICW is a high throughput screening assay to evaluate the cellular potency of mutant KRAS small molecule inhibitors. KRAS mutant cell lines AGS, GP2D (KRAS-G12D) as well as SW620 (KRAS-G12V) were purchased from ATCC and maintained respectively in RPMI/DMEM/RPMI medium supplemented with 10% fetal bovine serum.
Cells grown in exponential phase were trypsinized, resuspended in fresh media, and viable cells were counted using a cell counter with Trypan Blue (BioRad TC20). Cells were seeded into 384-well plate (Greiner 781091) at density of 5,000 cells/well for AGS and 10,000 cells/well for GP2D/SW620 and allowed to grow overnight in a 37° C. CO2 incubator. The next day, compounds were dispensed into wells with a ½ log, 9-point serial dilution using a Tecan D300e dispenser and incubated for 3 hours in a 37° C. CO2 incubator. Cells were then fixed with paraformaldehyde (Electron Microscopy Sciences, 15710, 4% final concentration) for 30 min, permeabilized with wash buffer (1×PBS+0.1% Triton X-100) for 30 min and blocked with Odyssey blocking buffer (Li—COR 927-70001) for 1 hour, all at room temperature (RT). Phospho-ERK antibody (CST 4370L) was diluted 1:500 in Odyssey T20 (PBS) antibody diluent (Li—COR 927-75001) and incubated with cells overnight at 4° C. The next day, plates were washed 5× with wash buffer, incubated with IRDye 800 CW, Goat anti-Rabbit secondary antibody (Li—COR 926-32211, 1:800) and DRAQ5 (CST 4084L, 1:5,000) diluted in Odyssey T20 (PBS) antibody diluent for 1 hour, washed 5×, and imaged on an Odyssey CLx imaging system.
For data analysis, signal intensities from 800 (phosphor-ERK) and 700 (DRAQ5) channels were extracted, and phospho-ERK signals were normalized to DRAQ5 signals for each well and percent of blank control values were computed. Data were then imported into Graphpad Prism to compute half-maximal inhibitory concentrations (IC50) using a 4-parameter variable slope model. Z-factor for each plate was computed from signals derived from wells treated with either DMSO or 5 μM of control compound. AGS pERK ICW (Method B) IC50 (uM) values of selected compounds are depicted in Table 2 with compounds having a value ≥0.001 uM to 0.01 uM as ++++; ≥0.01 uM to 0.1 uM as +++; ≥0.1 uM to 1 uM as ++; ≥1 uM to 10 uM as + and ≥10 uM as NA.

For assay [2], the target named is GST-tagged KRAS-G12D (2-169) (Homo sapiens, UniProt P01116, G12D). Description: Nucleotide exchange assay (NEA), SOS-mediated, HTRF, KRAS G12D. The assay is classed as biochemical. As to conditions: Table 4; IC50 extracted at 30 min; 20 nM SOScat; read-out: NEA G12D IC50. The method, boiled down: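 Compound preincubated 1 h at RT with 0.25 nM GST-KRAS-G12D (2-169) and anti-GST Tb donor, then 20 nM SOS1cat (564-1049) and 150 nM GTP-DY-647P1 added; pH 7.3 HEPES buffer with MgCl2 and DTT. HTRF monitored at RT; % inhibition versus DMSO and no-SOS blank, 4-parameter IC50 taken at 30 min.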
Chain of GST-tagged KRAS-G12D (2-169) (P01116 2-169 isoform P01116-2 G12D): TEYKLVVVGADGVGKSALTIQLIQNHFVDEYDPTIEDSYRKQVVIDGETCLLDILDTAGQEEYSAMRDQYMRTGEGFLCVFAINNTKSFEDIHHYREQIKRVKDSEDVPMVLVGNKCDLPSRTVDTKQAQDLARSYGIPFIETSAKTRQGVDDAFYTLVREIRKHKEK

Assay [3] deals with phospho-ERK in SW620 (KRAS-G12V) cells. Description: pERK In Cell Western (ICW) assay (Method B), SW620. It is filed as cell-based. An outline of the steps:
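3 h cpd, 37 °C, ½-log 9-pt dilution; AGS 5,000 cells/well, GP2D/SW620 10,000 cells/well, plated overnight. PFA fix, Triton perm, anti-pERK o/n 4 °C, IRDye 800 secondary + DRAQ5. pERK/DRAQ5 as % blank; IC50 4-PL.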

Assay [4] addresses GST-tagged KRAS-G12V (2-169) (Homo sapiens, UniProt P01116, G12V). As to the kind of experiment: Nucleotide exchange assay (NEA), SOS-mediated, HTRF, KRAS G12V. The assay is classed as biochemical. As to conditions: Table 4; IC50 extracted at 90 min; 80 nM SOS. The method, boiled down: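 GST-KRAS-G12V (2-169), 0.25 nM, pre-incubated 1 h at RT with compound, then SOS1cat (564-1049) 80 nM and GTP-DY-647P1 150 nM added in HEPES pH 7.3 buffer with MgCl2 and DTT. HTRF via anti-GST Tb cryptate read over 90 min; IC50 from 4-parameter fit at 90 min, blanked to no-SOS reactions.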

Setting [5] is: Homo sapiens, SW-620, 3 h, Table 4.

Structures are written as SMILES.

Chain of GST-tagged KRAS-G12V (2-169) (P01116 2-169 isoform P01116-2 G12V): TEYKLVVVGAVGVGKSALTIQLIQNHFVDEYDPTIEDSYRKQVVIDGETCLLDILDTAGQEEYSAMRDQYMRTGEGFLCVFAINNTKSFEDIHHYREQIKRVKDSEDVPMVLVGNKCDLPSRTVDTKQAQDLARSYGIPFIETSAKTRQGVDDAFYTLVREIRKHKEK

`CCN(c1nc(OCC2CCC3C(=O)N(C)CCN23)nc(N2CC3(C2)SCc2sc(N)c(C#N)c23)n1)C(C)c1cccnc1N` (mixture of isomers) [Compound 210, 1′-[4-[[(6SR,8aSR)-2-methyl-1-oxo-3,4,6,7,8,8a-hexahydropyrrolo[1,2-a]pyrazin-6-yl]methoxy]-6-[[(IR)-1-(2-amino-3-pyridyl)ethyl]-ethyl-amino]-1,3,5-triazin-2-yl]-2-amino-spiro[6H-thieno[3,4-b]thiophene-4,3′-azetidine]-3-carbonitrile]: the IC50 was 100 to 1000 nM in assay [1] (GP2d, 3 h, Table 4); less than 10 nM in assay [2]; 10 to 100 nM in assay [3] (setting [5]); less than 10 nM in assay [4].

Consider `CCN(c1nc(OC[C@@H]2CC[C@H]3CN(C)CCN23)nc(N2CC3(C2)SCc2sc(N)c(C#N)c23)n1)[C@H](C)c1cccnc1N` (mixture of isomers) [Compound 219, 1′-[4-[[(6SR,8aSR)-2-methyl-3,4,6,7,8,8a-hexahydro-1H-pyrrolo[1,2-a]pyrazin-6-yl]methoxy]-6-[[(1R)-1-(2-amino-3-pyridyl)ethyl]-ethyl-amino]-1,3,5-triazin-2-yl]-2-amino-spiro[6H-thieno[3,4-b]thiophene-4,3′-azetidine]-3-carbonitrile], for which the IC50 in assay [1] (GP2d, 3 h, Table 4) was 100 to 1000 nM; in assay [2], less than 10 nM; in assay [3] (setting [5]), 10 to 100 nM; in assay [4], less than 10 nM.

Consider `C[C@]1(O)CN(c2nc(OC[C@@]34CCCN3C[C@H](F)C4)nc(N3CC4(CCc5sc(N)c(C#N)c54)C3)n2)CC[C@@H]1O` (racemic) [Compound 62, 2-amino-1′-[4-[rac-(3S,4S)-3,4-dihydroxy-3-methyl-1-piperidyl]-6-[[(2R,8S)-2-fluoro-1,2,3,5,6,7-hexahydropyrrolizin-8-yl]methoxy]-1,3,5-triazin-2-yl]spiro[5,6-dihydrocyclopenta[b]thiophene-4,3′-azetidine]-3-carbonitrile], for which the IC50 in assay [1] (GP2d, 3 h, Table 4) was no less than 20000 nM; in assay [2], 100 to 1000 nM; in assay [3] (setting [5]) it was no less than 20000 nM; in assay [4], 100 to 1000 nM.

Take `N#Cc1c(N)sc2c1C1(CC2)CN(c2nc(OC[C@@]34CCCN3C[C@H](F)C4)nc(N3CCOCC(C#N)C3)n2)C1` (single isomer, unassigned) [Compound 91A, (6*)-4-[4-(2-amino-3-cyano-spiro[5,6-dihydrocyclopenta[b]thiophene-4,3′-azetidine]-1′-yl)-6-[[(2R,8S)-2-fluoro-1,2,3,5,6,7-hexahydropyrrolizin-8-yl]methoxy]-1,3,5-triazin-2-yl]-1,4-oxazepane-6-carbonitrile]: the IC50 was 100 to 1000 nM in assay [1] (GP2d, 3 h, Table 4); less than 10 nM in assay [2]; 100 to 1000 nM in assay [3] (Table 4, 3 hours); less than 10 nM in assay [4].

Take `N#Cc1c(N)sc2c1C1(CC2)CN(c2nc(OC[C@@]34CCCN3C[C@H](F)C4)nc(N3CCOCC(C#N)C3)n2)C1` (single isomer, unassigned) [Compound 91B, (6*)-4-[4-(2-amino-3-cyano-spiro[5,6-dihydrocyclopenta[b]thiophene-4,3′-azetidine]-1′-yl)-6-[[(2R,8S)-2-fluoro-1,2,3,5,6,7-hexahydropyrrolizin-8-yl]methoxy]-1,3,5-triazin-2-yl]-1,4-oxazepane-6-carbonitrile]: the half-inhibitory concentration (IC50) in assay [1] (Table 4, 3 hours) was 100 to 1000 nM; in assay [2], less than 10 nM; in assay [3] (Table 4, 3 hours) it was 10 to 100 nM; in assay [4], less than 10 nM.

Regarding `CC(c1cccnc1N)N(C)c1nc(OC[C@@]23CCCN2C[C@H](F)C3)nc(N2CC3(CCc4sc(N)c(C#N)c43)C2)n1` (single isomer, unassigned) [Compound 100A, 2-amino-1′-[4-[[(1*)-1-(2-amino-3-pyridyl)ethyl]-methyl-amino]-6-[[(2R,8S)-2-fluoro-1,2,3,5,6,7-hexahydropyrrolizin-8-yl]methoxy]-1,3,5-triazin-2-yl]spiro[5,6-dihydrocyclopenta[b]thiophene-4,3′-azetidine]-3-carbonitrile], the IC50 in assay [1] (Table 4, 3 hours) is 10 to 100 nM; in assay [2], less than 10 nM; in assay [3] (setting [5]) it was less than 10 nM; in assay [4], less than 10 nM.

`CC(c1cccnc1N)N(C)c1nc(OC[C@@]23CCCN2C[C@H](F)C3)nc(N2CC3(CCc4sc(N)c(C#N)c43)C2)n1` (single isomer, unassigned) [Compound 100B, 2-amino-1′-[4-[[(1*)-1-(2-amino-3-pyridyl)ethyl]-methyl-amino]-6-[[(2R,8S)-2-fluoro-1,2,3,5,6,7-hexahydropyrrolizin-8-yl]methoxy]-1,3,5-triazin-2-yl]spiro[5,6-dihydrocyclopenta[b]thiophene-4,3′-azetidine]-3-carbonitrile]: the IC50 in assay [1] (Table 4, 3 hours) is 100 to 1000 nM; in assay [2] it was 10 to 100 nM; in assay [3] (Table 4, 3 hours), 10 to 100 nM; in assay [4], less than 10 nM.

As to `CC(c1nccnc1N)N(C)c1nc(OC[C@@]23CCCN2C[C@H](F)C3)nc(N2CC3(CCc4sc(N)c(C#N)c43)C2)n1` (single isomer, unassigned) [Compound 116A, 2-amino-1′-[4-[[(1*)-1-(3-aminopyrazin-2-yl)ethyl]-methyl-amino]-6-[[(2R,8S)-2-fluoro-1,2,3,5,6,7-hexahydropyrrolizin-8-yl]methoxy]-1,3,5-triazin-2-yl]spiro[5,6-dihydrocyclopenta[b]thiophene-4,3′-azetidine]-3-carbonitrile], the half-maximal inhibitory concentration (IC50) in assay [1] (GP2d, 3 h, Table 4) is 10 to 100 nM; in assay [2], less than 10 nM; in assay [3] (setting [5]) it was 10 to 100 nM; in assay [4] it was less than 10 nM.

On to `CC(c1cccnc1N)N(C)c1nc(OC[C@@]23CCCN2C[C@H](F)C3)nc(N2CC3(C2)SCc2sc(N)c(C#N)c23)n1` (single isomer, unassigned) [Compound 120A, 2-amino-1′-[4-[[(1*)-1-(2-amino-3-pyridyl)ethyl]-methyl-amino]-6-[[(2R,8S)-2-fluoro-1,2,3,5,6,7-hexahydropyrrolizin-8-yl]methoxy]-1,3,5-triazin-2-yl]spiro[6H-thieno[3,4-b]thiophene-4,3′-azetidine]-3-carbonitrile], for which the IC50 in assay [1] (GP2d, 3 h, Table 4) was less than 10 nM; in assay [2], less than 10 nM; in assay [3] (setting [5]) it was less than 10 nM; in assay [4] it was less than 10 nM.

With `CN(C)CC1(COc2nc(N3CC4(CCc5sc(N)c(C#N)c54)C3)nc(N3CCC[C@@](C)(O)C3)n2)CC1(F)F` (stereo partly drawn) [Compound 34, 2-amino-1′-[4-[[1-[(dimethylamino)methyl]-2,2-difluoro-cyclopropyl]methoxy]-6-[(3R)-3-hydroxy-3-methyl-1-piperidyl]-1,3,5-triazin-2-yl]spiro[5,6-dihydrocyclopenta[b]thiophene-4,3′-azetidine]-3-carbonitrile], the IC50 in assay [1] (GP2d, 3 h, Table 4) is 10 to 100 nM; in assay [2] it was less than 10 nM; in assay [4] it was less than 10 nM.

For the molecule `N#Cc1c(N)sc2c1C1(CN(c3nc(OCC4(CN5CCOCC5)CC4)nc(N4C[C@@H]5CC[C@@H](N5)C4CO)n3)C1)SC2` (stereo partly drawn) [Compound 188, 2′-amino-1-(4-((1R,5S)-2-(hydroxymethyl)-3,8-diazabicyclo[3.2.1]octan-3-yl)-6-((1-(morpholinomethyl)cyclopropyl)methoxy)-1,3,5-triazin-2-yl)-6′H-spiro[azetidine-3,4′-thieno[3,4-b]thiophene]-3′-carbonitrile], the IC50 is less than 10 nM in assay [1] (GP2d, 3 h, Table 4); less than 10 nM in assay [2]; 10 to 100 nM in assay [4].
